The record followed here is patent publication US20230115274A1, “COMPOUNDS AND COMPOSITIONS FOR TREATING CONDITIONS ASSOCIATED WITH STING ACTIVITY” (IFM Due, Inc., priority 2019, published 2023).

The target in the assay is T1, hSTING (Homo sapiens, UniProt Q86WV6, G230A/H232R/R293Q/R71H).
T1 construct: host or cells: THP1-Dual KO-IFNAR2 cells
As to the kind of experiment: STING reporter assay (luciferase) in THP1-Dual KO-IFNAR2 cells stimulated with 2′3′cGAMP. The conditions noted are these: 2′3′cGAMP 15 μM, 24 h, class symbols. The class given is cell-based. The protocol: STING pathway activation by the compounds described herein was measured using THP1-Dual™ cells (KO-IFNAR2).
THP1-Dual™ KO-IFNAR2 Cells (obtained from invivogen) were maintained in RPMI, 10% FCS, 5 ml P/S, 2 mM L-glut, 10 mM Hepes, and 1 mM sodium pyruvate. Compounds were spotted in empty 384 well tissue culture plates (Greiner 781182) by Echo for a final concentration of 0.0017-100 μM. Cells were plated into the TC plates at […], 2×10E6 cells/mL. For activation with STING ligand, 2′3′cGAMP (MW 718.38, obtained from Invivogen), was prepared in Optimem media.
The following solutions were prepared for each 1×384 plate: • Solution A: 2 mL Optimem with one of the following stimuli: • […] • Solution B: 2 mL Optimem with 60 μL Lipofectamine 2000->Incubate 5 min at RT
2 mL of solution A and 2 ml Solution B was mixed and incubated for 20 min at room temperature (RT). 20 uL of transfection solution (A+B) was added on top of the plated cells, with a final 2′3′cGAMP concentration of 15 μM. The plates were then centrifuged immediately at 340 g for 1 minute, after which they were incubated at 37° C., 5% CO2, >98% humidity for 24 h. Luciferase reporter activity was then measured. EC50 values were calculated by using standard methods known in the art.
Luciferase reporter assay: 10 μL of supernatant from the assay was transferred to white 384-plate with flat bottom and squared wells. One pouch of QUANTI-Luc™ Plus was dissolved in 25 mL of water. 100 μL of QLC Stabilizer per 25 mL of QUANTI-Luc™ Plus solution was added. 50 μL of QUANTI-Luc™ Plus/QLC solution per well was then added. Luminescence was measured on a Platereader (e.g., Spectramax I3X (Molecular Devices GF3637001)).
Luciferase reporter activity was then measured. EC50 values were calculated by using standard methods known in the art.
In general terms: Reporter assays use an easily measured gene product as a stand-in for the process of interest.

T1 sequence (Q86WV6 whole entry R71H/G230A/H232R/R293Q): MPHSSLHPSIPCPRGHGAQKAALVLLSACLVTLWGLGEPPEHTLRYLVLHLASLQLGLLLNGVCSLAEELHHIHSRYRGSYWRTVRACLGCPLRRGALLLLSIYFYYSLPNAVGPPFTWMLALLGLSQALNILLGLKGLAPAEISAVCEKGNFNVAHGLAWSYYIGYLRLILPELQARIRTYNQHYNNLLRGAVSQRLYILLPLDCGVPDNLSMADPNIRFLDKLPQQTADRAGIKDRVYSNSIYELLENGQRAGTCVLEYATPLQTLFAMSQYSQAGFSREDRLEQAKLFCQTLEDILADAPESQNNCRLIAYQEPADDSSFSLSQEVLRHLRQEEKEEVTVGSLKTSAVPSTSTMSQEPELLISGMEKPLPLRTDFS

As for `O=C(Nc1cnc(N2CCC(F)(F)CC2)c(Cl)c1)Nc1c[nH]c2ccc(Br)nc12` [Compound 236, 1-(5-bromo-1H-pyrrolo[3,2-b]pyridin-3-yl)-3-(5-chloro-6-(4,4-difluoropiperidin-1-yl)pyridin-3-yl)urea], the EC50 was in the range of 40 to 200 nM.
The same measure for `O=C(Nc1ccc(C2CC(F)(F)C2)c(F)c1)Nc1c[nH]c2cccnc12` [Compound 239, 1-(4-(3,3-difluorocyclobutyl)-3-fluorophenyl)-3-(1H-pyrrolo[3,2-b]pyridin-3-yl)urea]: 200 to 1000 nM; for `Cc1cc(NC(=O)Nc2c[nH]c3ncc(F)cc23)cnc1N1CCC2(CC1)CC2` [Compound 192, 1-(5-fluoro-1H-pyrrolo[2,3-b]pyridin-3-yl)-3-(5-methyl-6-(6-azaspiro[2.5]octan-6-yl)pyridin-3-yl)urea]: 40 to 200 nM; for `CC(=O)n1cc(NC(=O)Nc2ccc(C3CCC(F)(F)CC3)nc2)c2cc(F)cnc21` [Compound 122, 1-(1-acetyl-5-fluoro-1H-pyrrolo[2,3-b]pyridin-3-yl)-3-(6-(4,4-difluorocyclohexyl)pyridin-3-yl)urea]: 200 to 1000 nM.
The same measure for `COc1ccc2[nH]cc(NC(=O)Nc3cnc(C4CCC(F)(F)CC4)c(C)c3)c2n1` [Compound 169, 1-(6-(4,4-difluorocyclohexyl)-5-methylpyridin-3-yl)-3-(5-methoxy-1H-pyrrolo[3,2-b]pyridin-3-yl)urea]: 200 to 1000 nM; for `O=C(Nc1ccc(C2CC(F)(F)C2)c(Cl)c1)Nc1c[nH]c2cccnc12` [Compound 219, 1-(3-chloro-4-(3,3-difluorocyclobutyl)phenyl)-3-(1H-pyrrolo[3,2-b]pyridin-3-yl)urea]: 200 to 1000 nM; for `CCc1cc(NC(=O)Nc2c[nH]c3ncc(F)cc23)cnc1N1CCC(F)(F)CC1` [Compound 163, 1-(6-(4,4-difluoropiperidin-1-yl)-5-ethylpyridin-3-yl)-3-(5-fluoro-1H-pyrrolo[2,3-b]pyridin-3-yl)urea]: 200 to 1000 nM.
Regarding `O=C(Nc1cnc(C2CCC(F)(F)CC2)c(CO)c1)Nc1c[nH]c2ncc(F)cc12` [Compound 158, 1-(6-(4,4-difluorocyclohexyl)-5-(hydroxymethyl)pyridin-3-yl)-3-(5-fluoro-1H-pyrrolo[2,3-b]pyridin-3-yl)urea], the EC50 fell in the range of 5000 to 100000 nM.
The same measure for `CN(C)c1ccc2[nH]cc(NC(=O)Nc3cnc(N4CCC(F)(F)CC4)c(F)c3)c2n1` [Compound 175, 1-(6-(4,4-difluoropiperidin-1-yl)-5-fluoropyridin-3-yl)-3-(5-(dimethylamino)-1H-pyrrolo[3,2-b]pyridin-3-yl)urea]: 5000 to 100000 nM; for `Cc1cc(NC(=O)Nc2c[nH]c3cccnc23)cnc1N1CCC(F)(F)CC1` [Compound 146, 1-(6-(4,4-difluoropiperidin-1-yl)-5-methylpyridin-3-yl)-3-(1H-pyrrolo[3,2-b]pyridin-3-yl)urea]: 1000 to 5000 nM; for `Cc1cc(NC(=O)Nc2c[nH]c3ncc(F)cc23)cnc1N1CCC(F)(F)CC1` [Compound 198, 1-(6-(4,4-difluoropiperidin-1-yl)-5-methylpyridin-3-yl)-3-(5-fluoro-1H-pyrrolo[2,3-b]pyridin-3-yl)urea]: 40 to 200 nM.
With `COCCOc1ccc2[nH]cc(NC(=O)Nc3cnc(C4CCC(F)(F)CC4)c(Cl)c3)c2n1` [Compound 211, 1-(5-chloro-6-(4,4-difluorocyclohexyl)pyridin-3-yl)-3-(5-(2-methoxyethoxy)-1H-pyrrolo[3,2-b]pyridin-3-yl)urea], the EC50 fell in the range of 200 to 1000 nM.
The result for `Cc1cc(NC(=O)Nc2c[nH]c3ncc(F)cc23)cnc1N1CC(F)(F)C1` [Compound 171, 1-(6-(3,3-difluoroazetidin-1-yl)-5-methylpyridin-3-yl)-3-(5-fluoro-1H-pyrrolo[2,3-b]pyridin-3-yl)urea] reads 200 to 1000 nM.
The result for `O=C(Nc1ccc(C2CCCC2)nc1)Nc1c[nH]c2ncc(F)cc12` [Compound 109, 1-(6-cyclopentylpyridin-3-yl)-3-(5-fluoro-1H-pyrrolo[2,3-b]pyridin-3-yl)urea] reads 200 to 1000 nM.

As usually defined, the EC50 is the concentration needed to bring the measured effect to its halfway point. Higher therefore signals weaker potency.
